Reference: patent US9056111B1, “Selective efflux inhibitors and related pharmaceutical compositions and methods of treatment” (STC.UNM, priority 2011, dated 2015)
Read-outs that look alike come from different tables or passages of the source.

Experiments:
[1] = target: ABCB1 (Homo sapiens, UniProt P08183); test: JC-1 efflux inhibition dose response, flow cytometry, Jurkat-DNR cells; conditions: for IC50: Jurkat-DNR cells over-expressing ABCB1, averages of two to four replicates
Experimental: (§1) The HyperCyt® high throughput flow cytometry platform (IntelliCyt™, Albuquerque, N. Mex.) was used to sequentially sample cells from 384-well microplates (2 μL/sample) for flow cytometer presentation at a rate of 40 samples per minute.^62-63 Flow cytometric analysis was performed on a CyAn™ flow cytometer (Beckman-Coulter, Fullerton, Calif.). The resulting time-gated data files were analyzed with HyperView® software to determine compound activity in each well. Inhibition response curves were fitted by Prism® software (GraphPad Software, Inc., San Diego, Calif.) using nonlinear least-squares regression in a sigmoidal dose response model with variable slope, also known as the four-parameter logistic equation. This type of time-gated flow cytometric data analysis was described in detail for a previous ABC transporter screen from our group.^56
The assay provider's ABCB1 over-expressing Jurkat-DNR cell line is used for confirmatory follow up instead of the CCRF-Adr cells. Each cell line (Jurkat-DNR and Ig-MXP3) is run separately against all compounds (no differential cell staining) in dose response. The assay is conducted in 384-well format in a total volume of 15.1 μL. Cells and reagents are added sequentially as follows: 1) PBS buffer (5 μL/well); 2) test compound (100 nL/well); 3) drug-resistant cells (10 μL/well) pre-stained with the JC-1 substrate at 1 μM. Final in-well concentrations of test compound range from 50 μM to 69 nM over an 18 point dose response and the cell concentration is 1×10^6 cells/mL. Nicardipine (50 μM) is added to each plate as a pan-inhibition positive control. The plate is rotated end-over-end at 4 RPM and 25° C. for 30 minutes and then cell samples are analyzed and flow cytometric data of light scatter and fluorescence emission at 530+/−20 nm (488 nm excitation, FL1) are collected.
(§2) Each cell line (Jurkat-DNR and Ig-MXP3) was run separately against all compounds (no differential cell staining) in dose-response. The protocol differed from the single point screen as describe here. Cells and reagents were added sequentially as follows: 1) PBS buffer (5 μL per well); 2) test compound (100 nL per well); 3) drug-resistant cells (10 μL, per well) pre-exposed to the JC-1 substrate at 1 μM just prior to the well addition. Final in-well concentrations of test compound ranged from 50 μM to 69 nM over an 18 point dose-response and the cell concentration was 1×10^6 cells mL^−1.

[2] = target: T1, ABCB1 / ABCG2 (Homo sapiens, UniProt Q9UNQ0); test: JC-1 efflux inhibition dose response, flow cytometry, Ig-MXP3 cells; conditions: human, probe JC-1 (1 µM), ~Fold G2 Selective (B1/G2), quotient of average ABCB1 IC50 and average ABCG2 IC50, efflux assay
T1 sequence (Q9UNQ0 1-655): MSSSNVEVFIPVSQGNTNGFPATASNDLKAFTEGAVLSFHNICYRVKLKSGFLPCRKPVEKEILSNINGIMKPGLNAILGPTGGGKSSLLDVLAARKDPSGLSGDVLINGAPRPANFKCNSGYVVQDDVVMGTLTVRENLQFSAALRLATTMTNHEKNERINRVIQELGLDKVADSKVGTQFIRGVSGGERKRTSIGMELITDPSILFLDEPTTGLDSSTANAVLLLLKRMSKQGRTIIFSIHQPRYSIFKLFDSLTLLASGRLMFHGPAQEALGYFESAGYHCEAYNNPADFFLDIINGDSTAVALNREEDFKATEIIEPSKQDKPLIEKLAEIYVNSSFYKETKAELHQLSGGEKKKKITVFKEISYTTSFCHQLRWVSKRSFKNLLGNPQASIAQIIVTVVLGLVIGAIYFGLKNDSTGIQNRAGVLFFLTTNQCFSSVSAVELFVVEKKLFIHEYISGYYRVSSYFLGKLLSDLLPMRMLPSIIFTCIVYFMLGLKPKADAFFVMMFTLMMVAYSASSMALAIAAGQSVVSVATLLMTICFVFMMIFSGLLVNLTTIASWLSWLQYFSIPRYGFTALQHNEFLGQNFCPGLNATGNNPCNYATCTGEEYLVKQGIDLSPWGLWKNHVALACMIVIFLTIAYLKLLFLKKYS
Experimental: as §1
(§3) The assay provider's ABCB1 over-expressing Jurkat-DNR cell line is used for confirmatory follow up instead of the CCRF-Adr cells. Each cell line (Jurkat-DNR and Ig-MXP3) is run separately against all compounds (no differential cell staining) in dose response. The assay is conducted in 384-well format in a total volume of 15.1 μL. Cells and reagents are added sequentially as follows: 1) PBS buffer (5 μL/well); 2) test compound (100 nL/well); 3) drug-resistant cells (10 μL/well) pre-stained with the JC-1 substrate at 1 μM. […] Nicardipine (50 μM) is added to each plate as a pan-inhibition positive control.
as §2, with “addition.” for “addition. Final in-well concentrations of test compound ranged from 50 μM to 69 nM over an 18 point dose-response and the cell concentration was 1×10^6 cells mL^−1.”

[3] = target: T2, ABCG2 (Homo sapiens, UniProt Q9UNQ0); test: as above; conditions: for ~Fold G2 Selective (B1/G2): quotient of average ABCB1 IC50 and average ABCG2 IC50, efflux assay
T2 sequence (Q9UNQ0 1-655): T1 sequence (Q9UNQ0 1-655)
Experimental: as §1, §3
as §2, with “addition.” for “addition. Final in-well concentrations of test compound ranged from 50 μM to 69 nM over an 18 point dose-response and the cell concentration was 1×10^6 cells mL^−1.”

[4] = IC50 ABCB1 (efflux inhibition of JC-1 substrate)
[5] = read-out: IC50 ABCB1 (efflux inhibition of JC-1 substrate)
[6] = read-out: IC50 ABCG2 (efflux inhibition of JC-1 substrate), Ig-MXP3 cells over-expressing ABCG2, averages of two to four replicates

Chain of ABCB1 (P08183 whole entry): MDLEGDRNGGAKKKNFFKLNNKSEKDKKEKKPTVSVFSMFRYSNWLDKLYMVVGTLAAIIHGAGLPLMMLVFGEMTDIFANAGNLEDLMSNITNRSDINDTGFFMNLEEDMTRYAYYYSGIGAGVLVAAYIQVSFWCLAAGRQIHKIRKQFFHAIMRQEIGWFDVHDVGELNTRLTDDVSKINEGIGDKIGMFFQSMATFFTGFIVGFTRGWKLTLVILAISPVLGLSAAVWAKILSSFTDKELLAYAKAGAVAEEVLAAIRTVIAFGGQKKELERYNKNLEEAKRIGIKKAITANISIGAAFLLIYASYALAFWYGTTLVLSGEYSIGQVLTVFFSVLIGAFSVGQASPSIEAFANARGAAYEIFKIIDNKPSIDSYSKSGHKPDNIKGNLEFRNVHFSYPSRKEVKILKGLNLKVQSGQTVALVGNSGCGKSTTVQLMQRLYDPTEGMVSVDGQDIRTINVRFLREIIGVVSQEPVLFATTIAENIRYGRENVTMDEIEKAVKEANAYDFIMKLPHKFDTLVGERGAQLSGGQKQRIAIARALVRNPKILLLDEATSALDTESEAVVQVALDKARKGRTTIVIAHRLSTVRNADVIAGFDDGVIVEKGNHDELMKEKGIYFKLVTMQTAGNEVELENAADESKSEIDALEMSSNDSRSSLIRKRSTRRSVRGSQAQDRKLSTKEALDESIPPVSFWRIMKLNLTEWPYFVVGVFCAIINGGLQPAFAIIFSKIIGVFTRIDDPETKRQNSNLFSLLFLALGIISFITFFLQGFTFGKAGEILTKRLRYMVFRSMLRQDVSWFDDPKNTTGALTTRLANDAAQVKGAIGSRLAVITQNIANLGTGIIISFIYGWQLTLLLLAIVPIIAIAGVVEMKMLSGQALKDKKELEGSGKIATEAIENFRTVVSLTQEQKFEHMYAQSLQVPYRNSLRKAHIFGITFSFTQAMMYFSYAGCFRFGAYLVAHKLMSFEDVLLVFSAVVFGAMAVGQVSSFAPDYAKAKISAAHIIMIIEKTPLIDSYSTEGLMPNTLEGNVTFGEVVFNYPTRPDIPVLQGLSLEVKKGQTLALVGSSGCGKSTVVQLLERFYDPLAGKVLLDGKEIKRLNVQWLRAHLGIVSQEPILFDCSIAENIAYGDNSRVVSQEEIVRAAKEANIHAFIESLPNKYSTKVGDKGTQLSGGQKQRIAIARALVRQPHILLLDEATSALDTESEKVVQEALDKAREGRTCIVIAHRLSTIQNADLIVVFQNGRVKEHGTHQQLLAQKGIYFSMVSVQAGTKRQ

Structure (SMILES)	IC50 [1, 4]	IC50 [3]	~Fold G2 Selective (B1/G2) [3]	IC50 [1, 5]	IC50 [3, 6]	selectivity ratio at 30 min [2]	efflux inhibition activity ABCB1 ([1]; JC-1 efflux, Jurkat-DNR)	efflux inhibition activity ABCG2 ([3]; JC-1 efflux, Ig-MXP3)
COc1cccc(-c2cc3nc(-c4ccccc4)cc(N4CCN(C(=O)c5ccoc5)CC4)n3n2)c1 [Compound 35]	2.26 ± 0.83 µM	1.14 ± 0.59 µM				2		
O=C(c1ccoc1)N1CCN(c2cc(-c3ccccc3)nc3cc(-c4cccc(Cl)c4)nn23)CC1 [Compound 11]	8.58 ± 0.63 µM	1.19 ± 0.26 µM	7.2 fold			7		
CN(C)c1cc(-c2ccco2)nc2cc(-c3ccccc3)nn12 [Compound 82]	27.7 ± 14.5 µM	7.68 ± 1.69 µM				3.6		
Cc1nc2cc(-c3ccccc3)nn2c(N2CCN(C(=O)c3ccoc3)CC2)c1C [Compound 89]	1.63 ± 0.59 µM	2.18 ± 1.93 µM				0.7		
Cc1cc(N2CCN(C(=O)c3ccco3)CC2)n2nc(-c3cccc(Cl)c3)cc2n1 [Compound 10]	5.88 ± 1.17 µM	2.78 ± 0.82 µM				2.1		
COc1ccccc1-c1cc2nc(-c3ccccc3)cc(N3CCN(C(=O)c4ccccc4)CC3)n2n1 [Compound 41]			3.0 fold	2.31 ± 0.79 µM	0.76 ± 0.06 µM			
COc1cccc(-c2cc(N3CCN(C(=O)c4ccoc4)CC3)n3nc(-c4cccc(Cl)c4)cc3n2)c1 [Compound 28]	2.17 ± 1.02 µM	1.14 ± 0.54 µM				1.9		
Cc1cc(N2CCN(C(=O)c3ccoc3)CC2)n2nc(-c3ccccc3)cc2n1 [Compound 63]	15.8 ± 3.33 µM	7.27 ± 3.01 µM				2.2		
O=C(Nc1ccccc1)C1CCN(c2cc(-c3ccco3)nc3cc(-c4ccccc4)nn23)CC1 [Compound 84]	> 50 µM	8.03 ± 2.18 µM						
CN(C)CCN(C)c1cc(-c2ccco2)nc2cc(-c3ccccc3)nn12 [Compound 78]	> 50 µM	8.88 ± 2.82 µM						
O=S(=O)(c1ccccc1)N1CCN(c2cc(-c3ccccc3)nc3cc(-c4cccc(Cl)c4)nn23)CC1 [Compound 25]	> 50 µM	> 50 µM						
COc1ccccc1-c1cc2nc(-c3ccccc3)cc(N3CCN(C(=O)c4ccco4)CC3)n2n1 [Compound 37]			2.9 fold	3 ± 0.57 µM	1.03 ± 0.17 µM			
COc1ccc2c3c([nH]c2c1)[C@H](C=C(C)C)N1C(=O)[C@@H]2CCCN2C(=O)[C@@H]1C3 [Compound 3, reference compound]							no activity	no activity

Further lines, with some results ahead:

IC50 [1, 4]	IC50 [3]	~Fold G2 Selective (B1/G2) [3]	IC50 [1, 5]	IC50 [3, 6]	Structure (SMILES)	selectivity ratio at 30 min [2]	efflux inhibition activity ABCB1 ([1]; JC-1 efflux, Jurkat-DNR)	efflux inhibition activity ABCG2 ([3]; JC-1 efflux, Ig-MXP3)
3.64 ± 1.47 µM	1.37 ± 0.53 µM				O=C(c1ccco1)N1CCN(c2cc(-c3ccccc3)nc3cc(-c4ccc(Cl)cc4)nn23)CC1 [Compound 39]	2.7		
		2.0 fold	7.32 ± 2.52 µM	3.68 ± 2.21 µM	Cc1coc(C)c1C(=O)N1CCN(c2cc(-c3ccco3)nc3cc(-c4ccccc4)nn23)CC1 [Compound 71]			
6.57 ± 2.13 µM	2.77 ± 4.01 µM				O=C(c1ccco1)N1CCN(c2cc(-c3ccco3)nc3cc(-c4ccccc4)nn23)CC1 [Compound 67]	2.4		
0.68 µM	0.84 ± 0.87 µM				Cc1ccc(-c2cc(N3CCN(C(=O)c4ccoc4)CC3)n3nc(-c4ccccc4)cc3n2)o1 [Compound 66]	0.8		
		3.6 fold	4.93 ± 1.76 µM	1.38 ± 1.04 µM	O=C(c1ccsc1)N1CCN(c2cc(-c3ccco3)nc3cc(-c4ccccc4)nn23)CC1 [Compound 68]			
		5.1 fold	11.9 ± 7.4 µM	2.33 ± 2.23 µM	Cc1occc1C(=O)N1CCN(c2cc(-c3ccco3)nc3cc(-c4ccccc4)nn23)CC1 [Compound 70]			
		3.6 fold	12 ± 6.11 µM	3.37 ± 1.19 µM	Cc1cc(C(=O)N2CCN(c3cc(-c4ccco4)nc4cc(-c5ccccc5)nn34)CC2)c(C)o1 [Compound 72]			
		3.1 fold	8.83 ± 6.63 µM	2.84 ± 0.96 µM	O=C(c1coc2ccccc12)N1CCN(c2cc(-c3ccco3)nc3cc(-c4ccccc4)nn23)CC1 [Compound 73]			
